Test results published in patent publication US8697739B2, “Bicyclic acetyl-CoA carboxylase inhibitors and uses thereof” (Novartis AG, priority 2010, dated 2014).

molecular target: T1, human acetyl-CoA carboxylase 2 (ACC2) (Homo sapiens, UniProt O00763); assay: Acetyl-CoA carboxylase enzyme assay (malonyl-CoA formation by LC/MS/MS); format: biochemical; conditions: recombinant human ACC2 (aa 144-2458); read-out: IC50 ACC2
T1 construct: The cDNA encoding amino acids 144 to 2458 of human acetyl-CoA carboxylase 2; made in house; host or cells: Sf9 insect cells (baculovirus, pFastBac1)
T1 sequence (O00763 144-2458): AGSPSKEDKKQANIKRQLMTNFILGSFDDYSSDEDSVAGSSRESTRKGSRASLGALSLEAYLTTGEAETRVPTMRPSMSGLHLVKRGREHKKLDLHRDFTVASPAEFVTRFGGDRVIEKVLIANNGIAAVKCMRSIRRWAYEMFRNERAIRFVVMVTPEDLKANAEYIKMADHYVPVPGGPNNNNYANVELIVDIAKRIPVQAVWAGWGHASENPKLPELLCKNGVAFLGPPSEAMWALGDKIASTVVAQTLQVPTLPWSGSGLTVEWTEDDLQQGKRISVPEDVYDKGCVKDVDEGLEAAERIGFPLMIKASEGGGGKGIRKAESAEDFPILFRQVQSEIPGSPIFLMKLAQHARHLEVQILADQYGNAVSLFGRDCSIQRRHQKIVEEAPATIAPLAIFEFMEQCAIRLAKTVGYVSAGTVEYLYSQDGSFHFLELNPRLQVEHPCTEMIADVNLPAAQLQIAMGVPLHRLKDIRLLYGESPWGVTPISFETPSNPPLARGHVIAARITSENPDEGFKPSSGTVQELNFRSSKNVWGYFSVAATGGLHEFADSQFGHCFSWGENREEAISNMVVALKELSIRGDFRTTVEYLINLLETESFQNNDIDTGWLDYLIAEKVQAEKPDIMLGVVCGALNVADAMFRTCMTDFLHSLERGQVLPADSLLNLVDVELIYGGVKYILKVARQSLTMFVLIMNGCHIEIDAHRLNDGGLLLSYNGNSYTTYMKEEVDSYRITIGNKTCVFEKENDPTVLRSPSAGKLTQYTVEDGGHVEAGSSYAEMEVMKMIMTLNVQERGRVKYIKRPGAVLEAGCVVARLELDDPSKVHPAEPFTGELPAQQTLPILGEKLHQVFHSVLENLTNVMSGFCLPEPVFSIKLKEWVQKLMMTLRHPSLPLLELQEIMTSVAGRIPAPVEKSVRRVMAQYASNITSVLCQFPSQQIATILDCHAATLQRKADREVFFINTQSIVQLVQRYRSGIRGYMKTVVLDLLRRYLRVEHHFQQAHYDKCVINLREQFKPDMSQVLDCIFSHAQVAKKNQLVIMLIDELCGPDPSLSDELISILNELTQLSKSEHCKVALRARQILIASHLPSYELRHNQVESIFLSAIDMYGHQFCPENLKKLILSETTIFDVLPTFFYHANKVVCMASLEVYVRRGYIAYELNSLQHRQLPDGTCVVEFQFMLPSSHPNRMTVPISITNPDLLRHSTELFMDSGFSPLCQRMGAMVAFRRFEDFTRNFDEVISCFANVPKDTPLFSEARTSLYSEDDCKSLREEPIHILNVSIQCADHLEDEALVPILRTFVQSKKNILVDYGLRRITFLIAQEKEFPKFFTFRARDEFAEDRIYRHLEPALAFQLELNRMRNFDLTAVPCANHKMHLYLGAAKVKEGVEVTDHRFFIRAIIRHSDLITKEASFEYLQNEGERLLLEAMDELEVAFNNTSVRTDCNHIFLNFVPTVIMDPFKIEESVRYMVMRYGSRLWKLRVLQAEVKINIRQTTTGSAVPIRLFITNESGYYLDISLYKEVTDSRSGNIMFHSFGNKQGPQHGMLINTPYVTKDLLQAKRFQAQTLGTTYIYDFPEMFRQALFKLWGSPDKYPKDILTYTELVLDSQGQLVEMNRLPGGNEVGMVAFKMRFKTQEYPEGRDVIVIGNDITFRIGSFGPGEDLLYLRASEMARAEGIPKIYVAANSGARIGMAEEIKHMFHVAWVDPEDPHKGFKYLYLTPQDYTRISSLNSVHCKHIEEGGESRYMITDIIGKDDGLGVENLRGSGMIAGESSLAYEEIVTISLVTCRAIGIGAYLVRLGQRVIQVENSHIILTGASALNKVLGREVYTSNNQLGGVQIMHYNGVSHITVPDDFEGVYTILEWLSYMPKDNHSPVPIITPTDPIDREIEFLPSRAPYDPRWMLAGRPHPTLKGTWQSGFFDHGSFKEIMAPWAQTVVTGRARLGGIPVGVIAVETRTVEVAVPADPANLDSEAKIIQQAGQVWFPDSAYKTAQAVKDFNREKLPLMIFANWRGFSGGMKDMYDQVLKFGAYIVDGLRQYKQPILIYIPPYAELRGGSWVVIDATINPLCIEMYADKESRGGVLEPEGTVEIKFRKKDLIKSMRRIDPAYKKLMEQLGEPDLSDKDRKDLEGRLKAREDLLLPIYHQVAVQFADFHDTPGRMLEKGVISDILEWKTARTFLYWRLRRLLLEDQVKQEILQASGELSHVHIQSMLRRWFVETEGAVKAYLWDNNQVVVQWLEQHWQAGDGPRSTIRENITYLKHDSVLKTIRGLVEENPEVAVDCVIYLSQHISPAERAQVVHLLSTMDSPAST
Outline: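 Malonyl-CoA formation was read by LC/MS/MS MRM against a [13C3]-malonyl-CoA internal standard, after acetic acid quench. The enzyme was baculovirus/Sf9-expressed human ACC2 residues 144–2458, given 15 minutes room-temperature compound preincubation in HEPES pH 7.5 buffer with MgCl2, citrate and DTT. Substrate solution held 50 μM acetyl-CoA, 120 μM ATP and 2 mM KHCO3.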

Row | Structure (SMILES) | IC50
1 | O=C([C@H]1CC[C@H](NS(=O)(=O)c2ccc3[nH]c(-c4ccccc4)nc3c2)CC1)N1CCOCC1 [Example 650, N-((1r,4r)-4-(morpholine-4-carbonyl)cyclohexyl)-2-phenyl-1H-benzo[d]imidazole-5-sulfonamide] | 304 nM
2 | CC(C)(C)c1nnc([C@H]2CC[C@H](NS(=O)(=O)c3ccc4[nH]c(C5CC5)nc4c3)CC2)o1 [Example 651, N-((1r,4r)-4-(5-tert-butyl-1,3,4-oxadiazol-2-yl)cyclohexyl)-2-cyclopropyl-1H-benzo[d]imidazole-5-sulfonamide] | 6350 nM
3 | COC(=O)c1ccc(-c2nc3cc(S(=O)(=O)N[C@H]4CC[C@H](c5nnc(C(C)(C)C)o5)CC4)ccc3[nH]2)cc1 [Example 652, methyl 4-(5-(N-((1r,4r)-4-(5-tert-butyl-1,3,4-oxadiazol-2-yl)cyclohexyl)sulfamoyl)-1H-benzo[d]imidazol-2-yl)benzoate] | 869 nM
4 | CC(C)(C)c1nnc([C@H]2CC[C@H](NS(=O)(=O)c3ccc4[nH]c(-c5cccnc5)nc4c3)CC2)o1 [Example 653, N-((1r,4r)-4-(5-tert-butyl-1,3,4-oxadiazol-2-yl)cyclohexyl)-2-(pyridin-3-yl)-1H-benzo[d]imidazole-5-sulfonamide] | 2030 nM
5 | CC(C)(C)c1nnc([C@H]2CC[C@H](NS(=O)(=O)c3ccc4[nH]c(Nc5cccnc5)nc4c3)CC2)o1 [Example 654, N-((1r,4r)-4-(5-tert-butyl-1,3,4-oxadiazol-2-yl)cyclohexyl)-2-(pyridin-3-ylamino)-1H-benzo[d]imidazole-5-sulfonamide] | 158 nM
6 | CC(C)(C)c1nnc([C@H]2CC[C@H](NS(=O)(=O)c3ccc4[nH]c(-c5ccc(N6CCNCC6)cc5)nc4c3)CC2)o1 [Example 655, N-((1r,4r)-4-(5-tert-butyl-1,3,4-oxadiazol-2-yl)cyclohexyl)-2-(4-(piperazin-1-yl)phenyl)-1H-benzo[d]imidazole-5-sulfonamide] | 141 nM
7 | CC(C)(C)c1nnc([C@H]2CC[C@H](NS(=O)(=O)c3ccc4[nH]c(-c5ccc(C(=O)O)cc5)nc4c3)CC2)o1 [Example 656, 4-(5-(N-((1r,4r)-4-(5-tert-butyl-1,3,4-oxadiazol-2-yl)cyclohexyl)sulfamoyl)-1H-benzo[d]imidazol-2-yl)benzoic acid] | 870 nM
8 | Cc1nc2cc(S(=O)(=O)N[C@H]3CC[C@H](c4nnc(C(C)(C)C)o4)CC3)ccc2n1Cc1ccccc1 [Example 657, 1-benzyl-N-((1r,4r)-4-(5-tert-butyl-1,3,4-oxadiazol-2-yl)cyclohexyl)-2-methyl-1H-benzo[d]imidazole-5-sulfonamide] | > 35000 nM
9 | Cc1nc2ccc(S(=O)(=O)N[C@H]3CC[C@H](C(=O)N4CCOCC4)CC3)cc2s1 [Example 658, 2-methyl-N-((1r,4r)-4-(morpholine-4-carbonyl)cyclohexyl)benzo[d]thiazole-6-sulfonamide] | 71700 nM
10 | C[C@@H]1CN(C(=O)[C@H]2CC[C@H](NS(=O)(=O)c3ccc4[nH]c(-c5ccccc5)nc4c3)CC2)C[C@H](C)O1 [Example 664, N-((1R,4r)-4-((2S,6R)-2,6-dimethylmorpholine-4-carbonyl)cyclohexyl)-2-phenyl-1H-benzo[d]imidazole-5-sulfonamide] | 54 nM
11 | C[C@H]1C[C@H](C)CN(C(=O)[C@H]2CC[C@H](NS(=O)(=O)c3ccc4[nH]c(-c5ccccc5)nc4c3)CC2)C1 [Example 665, N-((1S,4r)-4-((3S,5S)-3,5-dimethylpiperidine-1-carbonyl)cyclohexyl)-2-phenyl-1H-benzo[d]imidazole-5-sulfonamide] | 40 nM
12 | C[C@@H]1C[C@H](C)CN(C(=O)[C@H]2CC[C@H](NS(=O)(=O)c3ccc4[nH]c(-c5ccccc5)nc4c3)CC2)C1 [Example 666, N-((1R,4r)-4-((3S,5R)-3,5-dimethylpiperidine-1-carbonyl)cyclohexyl)-2-phenyl-1H-benzo[d]imidazole-5-sulfonamide] | 30 nM
13 | COC1CCN(C(=O)[C@H]2CC[C@H](NS(=O)(=O)c3ccc4[nH]c(-c5ccccc5)nc4c3)CC2)CC1 [Example 669, N-((1r,4r)-4-(4-methoxypiperidine-1-carbonyl)cyclohexyl)-2-phenyl-1H-benzo[d]imidazole-5-sulfonamide] | 362 nM
14 | Cn1ccc2cc(S(=O)(=O)N[C@H]3CC[C@H](C(=O)N[C@H](CO)c4ccccc4)CC3)ccc21 [Example 670, (1r,4S)-N-((S)-2-hydroxy-1-phenylethyl)-4-(1-methyl-1H-indole-5-sulfonamido)cyclohexanecarboxamide] | 66 nM
15 | Cn1ccc2cc(S(=O)(=O)N[C@H]3CC[C@H](C(=O)N[C@H]4CCCCNC4=O)CC3)ccc21 [Example 672, (1r,4S)-4-(1-methyl-1H-indole-5-sulfonamido)-N-((S)-2-oxoazepan-3-yl)cyclohexanecarboxamide] | 639 nM
16 | Cn1ccc2cc(S(=O)(=O)N[C@H]3CC[C@H](C(=O)N[C@H](CCO)c4ccccc4)CC3)ccc21 [Example 673, (1r,4R)-N-((R)-3-hydroxy-1-phenylpropyl)-4-(1-methyl-1H-indole-5-sulfonamido)cyclohexanecarboxamide] | 138 nM
17 | COC[C@@H](NC(=O)[C@H]1CC[C@H](NS(=O)(=O)c2ccc3c(ccn3C)c2)CC1)c1ccccc1 [Example 674, (1r,4S)-N-((S)-2-methoxy-1-phenylethyl)-4-(1-methyl-1H-indole-5-sulfonamido)cyclohexanecarboxamide] | 771 nM
18 | COCCN(C(=O)[C@H]1CC[C@H](NS(=O)(=O)c2ccc3[nH]c(-c4ccccc4)nc3c2)CC1)C1CCCCC1 [Example 676, (1r,4R)-N-cyclohexyl-N-(2-methoxyethyl)-4-(2-phenyl-1H-benzo[d]imidazole-5-sulfonamido)cyclohexanecarboxamide] | 23 nM
19 | COCC[C@@H](NC(=O)[C@H]1CC[C@H](NS(=O)(=O)c2ccc3c(ccn3C)c2)CC1)c1ccccc1 [Example 679, (1r,4R)-N-((R)-3-methoxy-1-phenylpropyl)-4-(1-methyl-1H-indole-5-sulfonamido)cyclohexanecarboxamide] | 110 nM

Results, then the compound that gave them:

Row | IC50 | Structure (SMILES)
20 | 387 nM | O=C(Nc1cccnc1)[C@H]1CC[C@H](NS(=O)(=O)c2ccc3[nH]c(-c4ccccc4)nc3c2)CC1 [Example 649, (1r,4r)-4-(2-phenyl-1H-benzo[d]imidazole-5-sulfonamido)-N-(pyridin-3-yl)cyclohexanecarboxamide]
21 | 378 nM | C[C@@H](NC(=O)[C@H]1CC[C@H](NS(=O)(=O)c2ccc3[nH]c(=O)oc3c2)CC1)c1ccc(F)cc1 [Example 659, (1r,4R)-N-((R)-1-(4-fluorophenyl)ethyl)-4-(2-oxo-2,3-dihydrobenzo[d]oxazole-6-sulfonamido)cyclohexanecarboxamide]
22 | 242 nM | Cc1nc2ccc(S(=O)(=O)N[C@H]3CC[C@H](C(=O)N[C@H](C)c4ccc(F)cc4)CC3)cc2s1 [Example 660, (1r,4R)-N-((R)-1-(4-fluorophenyl)ethyl)-4-(2-methylbenzo[d]thiazole-6-sulfonamido)cyclohexanecarboxamide]
23 | 733 nM | C[C@@H](NC(=O)[C@H]1CC[C@H](NS(=O)(=O)c2ccc3c(c2)OCO3)CC1)c1ccc(F)cc1 [Example 661, (1r,4R)-4-(benzo[d][1,3]dioxole-5-sulfonamido)-N-((R)-1-(4-fluorophenyl)ethyl)cyclohexanecarboxamide]
24 | 32500 nM | C[C@@H](NC(=O)[C@H]1CC[C@H](NC(=O)c2ccc3[nH]c(-c4ccccc4)nc3c2)CC1)c1ccc(F)cc1 [Example 662, N-((1R,4r)-4-((R)-1-(4-fluorophenyl)ethylcarbamoyl)cyclohexyl)-2-phenyl-1H-benzo[d]imidazole-5-carboxamide]
25 | 252 nM | Cc1nc2cc(S(=O)(=O)N[C@H]3CC[C@H](C(=O)N[C@H](C)c4ccc(F)cc4)CC3)ccc2[nH]1 [Example 663, (1r,4R)-N-((R)-1-(4-fluorophenyl)ethyl)-4-(2-methyl-1H-benzo[d]imidazole-5-sulfonamido)cyclohexanecarboxamide]
26 | 615 nM | CCOC(=O)Cc1nc2cc(S(=O)(=O)N[C@H]3CC[C@H](C(=O)N[C@H](C)c4ccc(F)cc4)CC3)ccc2[nH]1 [Example 667, ethyl 2-(5-(N-((1R,4r)-4-((R)-1-(4-fluorophenyl)ethylcarbamoyl)cyclohexyl)sulfamoyl)-1H-benzo[d]imidazol-2-yl)acetate]
27 | 124 nM | C[C@@H](NC(=O)[C@H]1CC[C@H](NS(=O)(=O)c2ccc3[nH]c(CC(=O)O)nc3c2)CC1)c1ccc(F)cc1 [Example 668, 2-(5-(N-((1R,4r)-4-((R)-1-(4-fluorophenyl)ethylcarbamoyl)cyclohexyl)sulfamoyl)-1H-benzo[d]imidazol-2-yl)acetic acid]
28 | > 35000 nM | Cn1ccc2cc(S(=O)(=O)N[C@H]3CC[C@H](C(=O)N[C@@H](CO)c4ccccc4)CC3)ccc21 [Example 671, (1r,4R)-N-((R)-2-hydroxy-1-phenylethyl)-4-(1-methyl-1H-indole-5-sulfonamido)cyclohexanecarboxamide]
29 | 105 nM | COCCN(C(=O)[C@H]1CC[C@H](NS(=O)(=O)c2ccc3[nH]c(-c4ccccc4)nc3c2)CC1)C(C)C [Example 675, (1r,4R)-N-isopropyl-N-(2-methoxyethyl)-4-(2-phenyl-1H-benzo[d]imidazole-5-sulfonamido)cyclohexanecarboxamide]
30 | 10 nM | C[C@@H](NC(=O)[C@H]1CC[C@H](NS(=O)(=O)c2ccc3ccccc3c2)CC1)c1ccc(F)cc1 [Example 677, (1r,4R)-N-((R)-1-(4-fluorophenyl)ethyl)-4-(naphthalene-2-sulfonamido)cyclohexanecarboxamide]
31 | 433 nM | C[C@@H](NC(=O)[C@H]1CC[C@H](NS(=O)(=O)c2cccc3ccccc23)CC1)c1ccc(F)cc1 [Example 678, (1r,4R)-N-((R)-1-(4-fluorophenyl)ethyl)-4-(naphthalene-1-sulfonamido)cyclohexanecarboxamide]
